Patent US20150313236A1 (ROHM AND HAAS COMPANY, priority 2012, published 2015)
Read-outs that look alike come from different tables or passages of the source.

Tests used:
[1] = tested on: Chlorella sp. ATCC 7516; test: Algal efficacy test of dry paint films (modified ASTM 5589, 6-well plates); type: cell-based; details: for inhibition at 2000 ppm: 504 h, read-out: % inhibition of visible algal growth
Protocol: (§1) ROCIMA™ 250 (40% IPBC) was post added to a white, acrylic/silicone based outdoor paint free of biocides to give a total active ingredient concentration of 10000 and 1000 ppm respectively. These paints were then diluted with an antimicrobial free acrylic/silicone based paint and mixed to prepare targeted concentrations of antimicrobial compounds for the testing. The total biocides concentrations tested were 125, 250, 500, 1000, 2000 and 5000 ppm. After biocides addition or dilution, the paints were mixed 90 seconds with the horse power shaker (AXEL 75M3372/Agitateur SO-10MI) until uniformity was achieved. Paints containing different antimicrobial compounds at the same levels were mixed together in order to obtain the desired ratio of antimicrobial compounds. After one day, the paints were applied to Schleicher & Schuell filter paper at 280 μm wet film thickness and dried for 3 days at room temperature avoiding direct exposure to sunlight. Square discs (1.6 cm×1.6 cm) were cut out from each panel and were used as the substrate for algal efficacy tests. This sample size allowed for an agar border when the sample disc was placed into the well of the test plate.
(§2) Algal efficacy was tested according to modified ASTM 5589 which is a standard accelerated test method for determining resistance of various coatings (including paints) to algal defacement. To accommodate for high-throughput screening, this method was scaled down from petri dishes to 6-well plates. Bold Modified Basal Freshwater Nutrient Solution was used as growth medium. A single coated filter paper coupon was placed with a pair of sterile forceps at the center of the agar plug (on top) with the painted surface facing upwards. Algal inoculums were prepared by mixing equal concentrations (1×10^6 cfu/ml) and equal volumes of exponentially growing algae cultures.
(§3) Each well that contains a tested coupon was inoculated with 1750 μl of algal suspensions (1×10^6 cfu/ml) making sure that the whole surface (paint film as well as the agar surrounding it) was evenly covered. The plates were incubated at room temp (21° C.-25° C.) with cyclic exposure to light and dark phases, for a period of three weeks.
(§4) At the end of the three week incubation period, the samples were scored for percent inhibition regarding visible algal growth compared to the blank sample (0% inhibition).
(§5) The Synergy Index calculation was performed as follows.
(§6) The SI is calculated based on F. C. Kull et.
(§7) SI value of <1 in the formula indicates a synergism of the blended biocides exists.
(§8) The minimal targeted inhibition was set at 75%, meaning a coupon with at least 75% algal growth inhibition was considered as a pass.

[2] = tested on: Stichococcus bacillaris SAG 379-1a; test: as above; type: cell-based; details: 3 weeks
Protocol: as §1, §2, §3, §4, §5, §6, §7, §8

SMILES | inhibition at 2000 ppm ([1]; total conc 2000 ppm, 3 weeks, vs blank sample) | Total conc (minimum inhibitory concentration chosen for SI; pass level ≧75% inhibition) ([1]; total active in liquid paint, dry film, 3 weeks) | inhibition at 1000 ppm ([2]; Stichococcus bacillaris, 504 h, total conc 1000 ppm, vs blank sample, read-out: % inhibition of visible algal growth) | Total conc (minimum inhibitory concentration chosen for SI; pass level ≧75% inhibition) ([2]; total active in liquid paint, dry film) | inhibition at 2000 ppm [1] | inhibition at 2000 ppm ([2]; Stichococcus bacillaris, 504 h, total conc 2000 ppm, vs blank sample, read-out: % inhibition of visible algal growth)
CCCCNC(=O)OCC#CI [IPBC, 3-Iodoprop-2-yn-1-yl butylcarbamate] | 100% | 2000 ppm | 100% | 1000 ppm | – | –
O=c1[nH]c2c(c(=O)n1C1CCCCC1)CCC2 [Lenacil, 3-cyclohexyl-1,5,6,7-tetrahydrocyclopentapyrimidine-2,4(3H)-dione] | – | – | – | – | 65% | 80%
